According to patent US20100056522A1, “INTRAOCULAR PRESSURE-LOWERING AGENT COMPRISING COMPOUND HAVING HISTONE DEACETYLASE INHIBITOR EFFECT AS ACTIVE INGREDIENT” (Santen Pharmaceutical Co., Ltd., priority 2007, published 2010):

How the values were obtained:
[1] = tested on: TM-1 cells (human trabecular meshwork cell line); test: Test for evaluation of effect of morphological change on trabecular meshwork cells (cell shape index); assay type: cell-based; settings: 10 μM, 24 hours, control CSI 0.679, lower CSI indicates greater morphological change
Method: As a method for evaluating a cellular morphological change, an evaluation system using the cell shape index (hereinafter referred to as “CSI”) as an index has been reported in The Journal of Clinical Investigation, 103, 1141-1150 (1999). Therefore, according to the method described in the above document, an effect of morphological change by the present compounds on trabecular meshwork cells was evaluated.
A human trabecular meshwork cell line (hereinafter referred to as “TM-1 cells”) reported in Investigative Opthalmology & Visual Science, 43, 151-161 (2002) was used.
Culture medium 1: A reagent was prepared by adding fetal bovine serum (10%), L-glutamine (2 mM), amphotericin B (2.5 μg/mL), and gentamicin (25 μg/mL) to Dulbecco's Modified Eagle Medium (hereinafter referred to as “D-MEM”).
Culture medium 2: Fetal bovine serum (3%), L-glutamine (2 mM), amphotericin B (2.5 μg/mL), and gentamicin (25 μg/mL) were added to D-MEM.
Cell staining liquid: A mixed liquid of Calcein-AM (16 μM) and Hoechst 33342 (40 μM) was prepared by diluting a Calcein-AM solution (cytoplasmic staining reagent, manufactured by Dojindo Laboratories) and a Hoechst 33342 solution (nuclear staining reagent, manufactured by Dojindo Laboratories) with D-MEM containing L-glutamine (2 mM), amphotericin B (2.5 μg/mL), and gentamicin (25 μg/mL).
TM-1 cells subcultured at 37° C. in a 8% carbon dioxide gas atmosphere were treated with a trypsin/EDTA solution (0.05% trypsin and 0.53 mM tetrasodium ethylenediaminetetraacetate) at 24 hours before performing a drug treatment mentioned below and seeded on a 96-well culture plate. The culture medium 1 was used for the subculture of the cells. The culture medium 2 was used for the cell culture after seeding the cells on the plate.
A test compound was dissolved in dimethyl sulfoxide, whereby a 5 mM solution was prepared. Then, the resulting solution was diluted with the culture medium 2, whereby a 200 μM test compound solution was prepared.
It has been reported that Y-27632 which is a Rho kinase inhibitor induces a morphological change in trabecular meshwork cells in Investigative Opthalmology & Visual Science, 42, 137-144 (2001). Therefore, Y-27632 (produced according to the method described in WO 90/05723) was used as a positive control, and dissolved in dimethyl sulfoxide in the same manner as the test compound, whereby a 5 mM solution was prepared, and then, the resulting solution was diluted with the culture medium 2, whereby a 200 μM positive control compound solution was prepared.
1) To a 96-well culture plate, a solution of TM-1 cells adjusted to a cell density of […] was added in an amount of 95 μL (1.5×10^4 cells) per well.
2) Incubation was performed at 37° C. in a 8% carbon dioxide gas atmosphere for 24 hours.
3) The test compound solution or positive control compound solution was added in an amount of 5 μL per well (the final concentration of the test compound or positive control compound was 10 μM). As a control, the culture medium 2 containing dimethyl sulfoxide (4%) was added in an amount of 5 μL per well.
4) Incubation was performed at 37° C. in a 8% carbon dioxide gas atmosphere for 24 hours.
5) The cell staining liquid was added in an amount of 10 μL per well.
6) Incubation was performed at 37° C. in a 8% carbon dioxide gas atmosphere for 1 hour to stain the cells.
7) A 37% formaldehyde solution was added in an amount of 10 μL per well.
8) Incubation was performed at room temperature for 1 hour to fix the cells.
9) Washing with phosphate-buffered saline was performed.
10) Using Array Scan Vti HCS reader (manufactured by Cellomics), images of stained cells magnified with a 20-fold objective lens were captured in 80 fields (10 fields×8 wells) per test compound addition group.
11) CSI was calculated for each cell and an average value was obtained for each test compound addition group.
CSI was calculated using the following equation.
CSI=4π×(Cell Area)/(Cell Perimeter)^2

[2] = tested on: HDAC (HeLa nuclear extract); test: Test for evaluation of an HDAC inhibitory effect (HDAC Fluorimetric Assay/Drug Discovery Kit, Biomol); assay type: biochemical; settings: final concentration of test compound 30 μM, rates of more than 100% are shown as 100%
Method: Using HDAC Fluorimetric Assay/Drug Discovery Kit (manufactured by Biomol), an HDAC inhibitory effect of the present compounds was measured according to the protocol included with the kit. The kit contains Buffer, HeLa nuclear extract (includes an HDAC), Substrate, Developer and Trichostatin A (an HDAC inhibitor).
A test compound was dissolved in dimethyl sulfoxide, whereby a 2 mg/mL solution was prepared. Then, the resulting solution was diluted with Buffer containing 5% dimethyl sulfoxide, whereby a 150 μM test compound solution was prepared.
1) To a 384-well culture plate, the test compound solution was added in an amount of 2 μL per well.
2) HeLa nuclear extract was diluted 30-fold with Buffer. The resulting solution was added in an amount of 3 μL per well and then, incubation was performed at 37° C. for 2 hours.
3) Substrate was diluted 500-fold with Buffer. The resulting solution was added in an amount of 5 μL per well (the final concentration of the test compound was 30 μM) and then, incubation was performed at 37° C. for 10 minutes.
4) Developer was diluted 20-fold with Buffer and Trichostatin A (2 μM) was added to it. The resulting solution was added in an amount of 10 μL per well and then, incubation was performed at room temperature for 15 minutes.
5) The fluorescence intensity of each well was measured using multilabel counter ARVO (manufactured by Wallac) with excitation at 360 nm and emission at 460 nm.
6) A control data was obtained from the same experiment except that Buffer containing 5% DMSO was added instead of the test compound solution as the above-mentioned procedure from 1) to 5).
7) A blank data was obtained from the same experiment except that Buffer containing 5% DMSO was added instead of the test compound solution and that Buffer was added instead of Hela nuclear extract as the above-mentioned procedure from 1) to 5).
Enzyme inhibitory rate (%) was calculated using the following equation.
(Enzyme Inhibitory Rate(%))=100×[1−{(Fluorescence Intensity of Test Compound Solution)−(Florescence Intensity of Blank)}/{(Florescence Intensity of Control)−(Florescence Intensity of Blank)}]

SMILES | CSI [1] | Enzyme Inhibitory Rate (%) [2] [%]
Nc1ccccc1NC(=O)c1ccc(CN(CCCN2CCOCC2)C(=O)Nc2ccc3c(c2)CCO3)cn1 [Compound 1-38, N-(2-Aminophenyl)-5-[3-(2,3-dihydro-1-benzofuran-5-yl)-1-[3-(morpholin-4-yl)propyl]ureidomethyl]pyridine-2-carboxylic acid amide] | 0.575 | 97
Nc1ccccc1NC(=O)c1ccc(CN(CCCCN2CCOCC2)C(=O)Nc2ccc3c(c2)OCCO3)cn1 [Compound 1-90, N-(2-Aminophenyl)-5-[3-(2,3-dihydrobenzo[1,4]dioxin-6-yl)-1-[4-(morpholin-4-yl)butyl]ureidomethyl]pyridine-2-carboxylic acid amide] | 0.480 | 98
CN(C)CCN(Cc1ccc(C(=O)Nc2ccccc2N)nc1)C(=O)Nc1ccc2c(c1)OCCO2 [Compound 1-53, N-(2-Aminophenyl)-5-[3-(2,3-dihydrobenzo[1,4]dioxin-6-yl)-1-(2-dimethylaminoethyl)ureidomethyl]pyridine-2-carboxylic acid amide] | 0.502 | 98
CN(C)CCN(Cc1ccc(C(=O)Nc2ccccc2N)nc1)C(=O)Nc1cccc(F)c1 [Compound 1-55, N-(2-Aminophenyl)-5-[1-(2-dimethylaminoethyl)-3-(3-fluorophenyl)ureidomethyl]pyridine-2-carboxylic acid amide] | 0.525 | 98
C[C@@H](N)[C@H]1CC[C@H](C(=O)Nc2ccncc2)CC1 [Compound Y-27632, reference compound] | 0.543 | –
CN(C)CCN(Cc1ccc(C(=O)Nc2ccccc2N)nc1)C(=O)Nc1ccsc1 [Compound 1-56, N-(2-Aminophenyl)-5-[1-(2-dimethylaminoethyl)-3-(thiophen-3-yl)ureidomethyl]pyridine-2-carboxylic acid amide] | 0.526 | 97
Cc1ccc(NC(=O)N(CCCN(C)C)Cc2ccc(C(=O)Nc3ccccc3N)nc2)cc1F [Compound 1-13, N-(2-Aminophenyl)-5-[1-(3-dimethylaminopropyl)-3-(3-fluoro-4-methylphenyl)ureidomethyl]pyridine-2-carboxylic acid amide] | 0.545 | 100
Nc1ccccc1NC(=O)c1ccc(CN(CCCN2CCOCC2)C(=O)Nc2cccnc2)cn1 [Compound 1-8, N-(2-Aminophenyl)-5-[1-[3-(morpholin-4-yl)propyl]-3-(pyridin-3-yl)ureidomethyl]pyridine-2-carboxylic acid amide] | 0.538 | 96
CN(C)CCCN(Cc1ccc(C(=O)Nc2ccccc2N)nc1)C(=O)Nc1nc2ccccc2s1 [Compound 1-30, N-(2-Aminophenyl)-5-[3-(1,3-benzothiazol-2-yl)-1-(3-dimethylaminopropyl)ureidomethyl]pyridine-2-carboxylic acid amide] | 0.564 | 100
O=C(/C=C/c1cccc(C(=O)NO)c1)NO [CBHA, N-Hydroxy-3-[3-hydroxyamino-3-oxo-1-propenyl]benzamide, reference compound] | 0.545 | 99
Nc1ccccc1NC(=O)c1ccc(CN(CCCN2CCCC2)C(=O)Nc2cccnc2)cn1 [Compound 1-58, N-(2-Aminophenyl)-5-[3-(pyridin-3-yl)-1-[3-(pyrrolidin-1-yl)propyl]ureidomethyl]pyridine-2-carboxylic acid amide] | 0.518 | 98
CN(C)c1ccc(C(=O)NCCCCCCC(=O)NO)cc1 [M 344, 4-Dimethylamino-N-(6-hydroxycarbamoylhexyl)benzamide, reference compound] | 0.500 | 99
